Laboratory results taken from ChEMBL document CHEMBL1145805, “Utilization of a beta-aminophosphotyrosyl mimetic in the design and synthesis of macrocyclic Grb2 SH2 domain-binding peptides” (J Med Chem, 2003).
Active and inactive are the calls of the source. No cut-off for these calls is given here.

Experiments:
[1] = biological target: T1, Growth factor receptor-bound protein 2 (Homo sapiens, UniProt P62993); experiment: Inhibition of Growth factor receptor bound protein 2 SH2 domain in extracellular binding assay
Target sequence in this assay (P62993 whole entry, the tested form may be a part): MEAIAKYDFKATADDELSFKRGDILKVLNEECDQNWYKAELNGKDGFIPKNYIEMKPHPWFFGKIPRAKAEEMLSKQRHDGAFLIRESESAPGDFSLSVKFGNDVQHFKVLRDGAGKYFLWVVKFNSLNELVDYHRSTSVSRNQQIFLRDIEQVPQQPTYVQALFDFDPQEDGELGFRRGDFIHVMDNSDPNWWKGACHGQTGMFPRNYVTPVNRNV

[2] = test system: MDA-MB-453; experiment: Inhibition of MDA-MB-453 breast cancer cell proliferation (No inhibition); assay type: functional, cell-based; details: Homo sapiens
[3] = biological target: T1, Growth factor receptor-bound protein 2; experiment: Inhibition of growth factor receptor-bound protein 2 SH2 domain binding to erbB-2 in cell-based assay (Not significant)
Target sequence in this assay (P62993 whole entry, looked up, the tested form may be a part): as the sequence (P62993 whole entry, the tested form may be a part) above

| SMILES | IC50 [1] [µM] | NI [2] | NS [3] |
| --- | --- | --- | --- |
| NC(=O)C[C@H](NC(=O)C1(NC(=O)CCc2ccc(CP(=O)(O)O)cc2)CCCCC1)C(N)=O | 52.5 |  |  |
| NC(=O)C[C@@H]1NC(=O)C2(CCCCC2)NC(=O)C[C@@H](c2ccc(CP(=O)(O)O)cc2)/C=C/C[C@@H](Cc2cccc3ccccc23)CNC1=O | 0.026 | inactive | inactive |
| NC(=O)C[C@@H]1NC(=O)C2(CCCCC2)NC(=O)C[C@@H](c2ccc(CP(=O)(O)O)cc2)NC(=O)C[C@@H](Cc2cccc3ccccc23)CNC1=O | 7.9 | inactive | inactive |
| NC(=O)C[C@@H]1NC(=O)C2(CCCCC2)NC(=O)C[C@@H](c2ccc(CP(=O)(O)O)cc2)NC(=O)CCCNC1=O | 47.9 |  |  |
| NC(=O)C[C@@H]1NC(=O)C2(CCCCC2)NC(=O)C[C@@H](c2ccc(CP(=O)(O)O)cc2)NC(=O)CCNC1=O | > 600 |  |  |
| NC(=O)C[C@@H]1NC(=O)C2(CCCCC2)NC(=O)C[C@@H](c2ccc(CP(=O)(O)O)cc2)NC(=O)CNC1=O | > 600 |  |  |
